Assay results taken from patent EP4682144A1, “SOLID FORM OF PYRROLIDONE DERIVATIVE AS GLUCOKINASE ACTIVATOR” (Hua Medicine (Shanghai) Ltd., priority 2023, dated 2024).
In brackets after ≈: the same amount, converted by molar mass. Counter-ions that a name gives are not always drawn. Each block holds one compound with its values, some of them ahead of it.

Tests used:
[1] = Pharmacokinetic study in rats (IV and PO); assay type: in vivo, SD male rats
C57BL/6J mice [2] = experiment: Oral glucose tolerance test (OGTT), glucose-lowering effect; assay type: in vivo; conditions: for blood glucose level at 0 min (pre-glucose): oral, 1 hour after administration, dose-response relationship; for blood glucose values after glucose administration: 60 min, and 120 min
Method: (§1) There were 7 groups of mice, with 8 mice in each group. […] Oral glucose tolerance test (OGTT) was performed 1 hour after administration. The blood glucose level in mice was tested before administration (-60 min), before sugar administration (0 min), and at 15 min, 30 min, 60 min, and 120 min after sugar administration. In addition, 40 µl of blood was collected from the tail tip before sugar administration (0 min) and at 15 min after sugar administration to collect the plasma for an insulin level test.
(§2) All data was transferred into an Excel document. The blood glucose results were expressed in mg/dL and expressed as MEAN ± SEM. Differences between multiple groups were analyzed using Dunnett's method in one-way analysis of variance (ANOVA) or two-way analysis of variance (ANOVA) with Graphpad Prism 8 software for comparison, and the differences were considered statistically significant when the P value was less than 0.05.

C57BL/6J mice [3] = experiment: Plasma insulin level test during OGTT; assay type: in vivo
Method: as §1, §2

[4] = Simulated metabolic test in human intestine S9; assay type: in vitro ADME
[5] = Preliminary solubility test in solvents at room temperature; assay type: physicochemical
Method: Table 10 Solubility range of the starting material sample at room temperature
The solubility range in the corresponding solvent was calculated based on the mass of the sample and the volume of the added solvent, as shown in Table 28. The data were used as a base to guide the selection of solvent in screening tests. Table 28 Preliminary solubility of crystal form A of the free state at room temperature
The solubility range in the corresponding solvent was calculated based on the mass of the sample and the volume of the added solvent, as shown in Table 35. The data were used as a base to guide the selection of solvent in the screening tests.

[6] = Caco-2 bi-directional permeability test; conditions: human; for recovery at 2 h, 2 µM: Compound A concentration 2.00 µM; for recovery at 2 h, 10 µM: Compound A concentration 10.0 µM
Caco-2 cells = experiment: Caco-2 bi-directional permeability test; conditions: Caco-2
[7] = Dynamic vapour sorption (DVS) test; assay type: physicochemical; conditions: relative humidity of less than or equal to 90%; listed as crystal form B of the hydrochloride
[8] = High-temperature and high-humidity stability test of hydrochloride crystal form B; assay type: physicochemical
[9] = C57BL/6J mice, versus vehicle control group
[10] = acetone, 25 °C, organic solvent or mixture, thermodynamic from solid, room temperature
[11] = chcl3, 25 °C, organic solvent or mixture, thermodynamic from solid, CHCl3, room temperature
[12] = Caco-2, pH 7.4, Average recovery rate (%) A→B
[13] = Caco-2, pH 7.4, Average recovery rate (%) B→A

bioavailability ([1]; Sprague-Dawley, rat, plasma, 30 mg/kg, SD male rats, PO, analyte parent drug HMS5552): 51.2%
Compound: CC(C)C[C@@H](C(=O)Nc1ccn(C[C@@H](O)CO)n1)N1CC(Oc2ccccc2Cl)=CC1=O [HMS5552, (S)-2-(4-(2-chlorophenoxy)-2-oxo-2,5-dihydro-1H-pyrrol-1-yl)-N-(1-((R)-2,3-dihydroxypropyl)-1H-pyrazol-3-yl)-4-methylpentanamide, reference compound]
blood glucose level at 0 min (pre-glucose) (C57BL/6J mice [2]; [9]): generally lower than that of the vehicle control group
blood glucose values after glucose administration (C57BL/6J mice [2]; HMS5552-40mg/kg group, at 30 min, versus vehicle control group): significantly lower than that of the vehicle control group
insulin levels at 0 min and 15 min (C57BL/6J mice [3]; each dose group of HMS5552 versus vehicle control group): slightly higher than those in the vehicle control group, without significant difference

Compound: CC(C)C[C@@H](C(=O)Nc1ccn(C[C@@H](O)COC(=O)c2cccnc2)n1)N1CC(Oc2ccccc2Cl)=CC1=O [Compound A, (R)-3-(3-((S)-2-(4-(2-chlorophenoxy)-2-oxo-2,5-dihydro-1H-pyrrol-1-yl)-4-methylpentanamido)-1H-pyrazol-1-yl)-2-hydroxypropyl nicotinate]
time until completely metabolized and converted into the parent drug HMS5552 [4]: ≤ 5 min
metabolism in rats by intravenous injection ([1]; rats, intravenous injection): metabolized very rapidly
glucose-lowering effect in mice (C57BL/6J mice [2]; C57BL/6J mice, OGTT): good glucose-lowering effect
blood glucose level at 0 min (pre-glucose) (C57BL/6J mice [2]; [9]): generally lower than that of the vehicle control group
blood glucose values after glucose administration (C57BL/6J mice [2]; compound A-49.1 mg/kg group, at 15 min, 30 min, versus vehicle control group): significantly lower than that of the vehicle control group
blood glucose values after glucose administration (C57BL/6J mice [2]; compound A-49.1 mg/kg group, at 30 min, versus HMS5552-40mg/kg group): significantly lower than that of the HMS5552-40mg/kg group
AUC0-120min of OGTT blood glucose (C57BL/6J mice [2]; medium and high dose groups of compound A versus corresponding dose groups of HMS5552): significantly lower than those of the corresponding dose groups of HMS5552
insulin level at 0 min (C57BL/6J mice [3]; compound A high-dose group): significantly higher than that of the vehicle control group and the HMS5552 high-dose group
insulin level at 15 min (C57BL/6J mice [3]; compound A-18.4mg/kg group versus corresponding dose group of HMS5552): significantly higher than that of the corresponding dose group of HMS5552
insulin level at 15 min (C57BL/6J mice [3]; compound A-18.4mg/kg group versus vehicle control group): significantly higher than that of the vehicle control group
insulin level at 15 min (C57BL/6J mice [3]; compound A-49.1mg/kg group versus vehicle control group): significantly higher than that of the vehicle control group
Solubility (mg/mL) ([5]; 1,4-Dioxane, room temperature): S>42.0 mg/mL
Solubility (mg/mL) ([5]; 2-MeTHF, room temperature): S>42.0 mg/mL
solubility ([5]; 2-MeTHF/n-Heptane (1:4) v/v, 25 °C, organic solvent or mixture, thermodynamic from solid, 2-MeTHF/n-Heptane (1:4) v/v, room temperature): < 1000 µg/mL
Solubility (mg/mL) ([5]; ACN, room temperature): S>50.0 mg/mL
solubility ([5]; Cyclohexane, 25 °C, organic solvent or mixture, thermodynamic from solid, room temperature): < 1100 µg/mL
solubility ([5]; DCM, 25 °C, organic solvent or mixture, thermodynamic from solid, room temperature): > 44000 µg/mL
solubility ([5]; DMAc, 25 °C, organic solvent or mixture, thermodynamic from solid, room temperature): > 42000 µg/mL
solubility ([5]; DMSO, 25 °C, organic solvent or mixture, thermodynamic from solid, room temperature): > 44000 µg/mL
Solubility (mg/mL) ([5]; EtOAc, room temperature): S>48.0 mg/mL
solubility ([5]; EtOAc/n-heptane (1:4 v/v), 25 °C, organic solvent or mixture, thermodynamic from solid, EtOAc/n-Heptane (1:4) v/v, room temperature): < 1100 µg/mL
Solubility (mg/mL) ([5]; EtOH, room temperature): S>46.0 mg/mL
solubility ([5]; EtOH/H2O (1:2) v/v, 25 °C, aqueous with cosolvent or surfactant or cyclodextrin, thermodynamic from solid, EtOH/H2O (1:2) v/v, room temperature): 2100 to 5300 µg/mL (≈ 3.7 to 9.33 mM)
solubility ([5]; H2O, 25 °C, water, thermodynamic from solid, room temperature): < 1100 µg/mL
Solubility (mg/mL) ([5]; IPA, room temperature): S>38.0 mg/mL
Solubility (mg/mL) ([5]; IPAc, room temperature): S>44.0 mg/mL
Solubility (mg/mL) ([5]; MIBK, room temperature): S>40.0 mg/mL
solubility ([5]; MeOH, 25 °C, organic solvent or mixture, thermodynamic from solid, room temperature (25±3 °C)): > 50000 µg/mL
solubility ([5]; NMP, 25 °C, organic solvent or mixture, thermodynamic from solid, room temperature): > 44000 µg/mL
solubility ([5]; THF, 25 °C, organic solvent or mixture, thermodynamic from solid, room temperature): > 40000 µg/mL
solubility ([5]; Toluene/n-Heptane (1:1) v/v, 25 °C, organic solvent or mixture, thermodynamic from solid, Toluene/n-Heptane (1:1) v/v, room temperature): 1000 to 2000 µg/mL (≈ 1.76 to 3.52 mM)
solubility [5, 10]: > 46000 µg/mL
solubility ([5]; acetone/H2O (1:2 v/v), 25 °C, aqueous with cosolvent or surfactant or cyclodextrin, thermodynamic from solid, Acetone/H2O (1:2) v/v, room temperature): 5300 to 10500 µg/mL (≈ 9.33 to 18.5 mM)
solubility [5, 11]: > 48000 µg/mL
solubility ([5]; n-Heptane, 25 °C, organic solvent or mixture, thermodynamic from solid, room temperature): < 1100 µg/mL
recovery at 2 h, 2 µM [6, 12]: 52.9%
recovery at 2 h, 10 µM [6, 12]: 37.5%
recovery at 2 h, 2 µM [6, 13]: 87.1%
recovery at 2 h, 10 µM [6, 13]: 81.6%
recovery at 2 h, 30 µM ([6]; Caco-2, pH 7.4, Average recovery rate (%) B→A, Compound A concentration 30.0 µM): 82.2%
permeability from A side to B side (Caco-2 cells): low
permeability from B side to A side (Caco-2 cells): high

Compound: CC(C)C[C@@H](C(=O)Nc1ccn(C[C@@H](O)COC(=O)c2cccnc2)n1)N1CC(Oc2ccccc2Cl)=CC1=O [Hydrochloride crystal form B]
Solubility (mg/mL) ([5]; 1,4-Dioxane, room temperature, listed as crystal form B of the hydrochloride): S<1.0 mg/mL
solubility ([5]; 2-methf, 25 °C, organic solvent or mixture, thermodynamic from solid, room temperature): < 1000 µg/mL
Solubility (mg/mL) ([5]; DMAc, room temperature, listed as crystal form B of the hydrochloride): S>40.0 mg/mL
Solubility (mg/mL) ([5]; DMSO, room temperature, listed as crystal form B of the hydrochloride): S>42.0 mg/mL
Solubility (mg/mL) ([5]; H2O, room temperature, listed as crystal form B of the hydrochloride): S<1.0 mg/mL
Solubility (mg/mL) ([5]; MTBE, room temperature, listed as crystal form B of the hydrochloride): S<1.0 mg/mL
Solubility (mg/mL) ([5]; MeOH, room temperature (25±3 °C), listed as crystal form B of the hydrochloride): S>36.0 mg/mL
Solubility (mg/mL) ([5]; NMP, room temperature, listed as crystal form B of the hydrochloride): S>42.0 mg/mL
Solubility (mg/mL) ([5]; Toluene, room temperature, listed as crystal form B of the hydrochloride): S<1.0 mg/mL
solubility [5, 10]: < 1000 µg/mL
solubility ([5]; acn, 25 °C, organic solvent or mixture, thermodynamic from solid, room temperature): < 1100 µg/mL
solubility ([5]; acn/h2o (1:1) v/v, room temperature): > 40000 µg/mL
solubility [5, 11]: < 1100 µg/mL
solubility ([5]; dcm, 25 °C, organic solvent or mixture, thermodynamic from solid, room temperature): < 1000 µg/mL
solubility ([5]; dmf/h2o (1:1) v/v, room temperature): 22000 to 44000 µg/mL
solubility ([5]; etoac, 25 °C, organic solvent or mixture, thermodynamic from solid, room temperature): < 1000 µg/mL
solubility ([5]; etoh/h2o (1:1) v/v, room temperature): 22000 to 44000 µg/mL
solubility ([5]; ipa, 25 °C, organic solvent or mixture, thermodynamic from solid, room temperature): < 1100 µg/mL
solubility ([5]; ipa/h2o (1:1) v/v, room temperature): > 40000 µg/mL
solubility ([5]; ipac, 25 °C, organic solvent or mixture, thermodynamic from solid, room temperature): < 1000 µg/mL
solubility ([5]; meoh/h2o (1:1) v/v, room temperature): 11000 to 22000 µg/mL
solubility ([5]; mibk, 25 °C, organic solvent or mixture, thermodynamic from solid, room temperature): < 1000 µg/mL
Solubility (mg/mL) ([5]; n-Heptane, room temperature, listed as crystal form B of the hydrochloride): S<1.0 mg/mL
solubility ([5]; thf, 25 °C, organic solvent or mixture, thermodynamic from solid, room temperature): < 1100 µg/mL
solubility ([5]; thf/h2o (1:1) v/v, room temperature): 20000 to 40000 µg/mL
moisture-induced weight gain [7]: less than 0.7%
Purity (Area%) ([8]; 25 °C/75%RH, Day 2): 99.72 Area%
Purity (Area%) ([8]; 25 °C/75%RH, Day 5): 99.56 Area%
Purity (Area%) ([8]; 25 °C/75%RH, Day 9): 99.64 Area%
Purity (Area%) ([8]; 40°C/75%RH, Day 2): 99.67 Area%
Purity (Area%) ([8]; 40°C/75%RH, Day 5): 99.38 Area%
Purity (Area%) ([8]; 40°C/75%RH, Day 9): 99.33 Area%
Purity (Area%) ([8]; 60°C, Day 2): 99.55 Area%
Purity (Area%) ([8]; 60°C, Day 5): 99.43 Area%
Purity (Area%) ([8]; 60°C, Day 9): 99.55 Area%
Purity (Area%) ([8]; 80°C, Day 2): 95.20 Area%
Purity (Area%) ([8]; 80°C, Day 5): 94.65 Area%
Purity (Area%) ([8]; 80°C, Day 9): 96.80 Area%
Purity (Area%) ([8]; Starting point (table 25 °C/75%RH / 40°C/75%RH)): 99.72 Area%
Purity (Area%) ([8]; Starting point (table 60°C / 80°C)): 99.72 Area%
stability under the high-temperature and high-humidity conditions ([8]; compared with crystal form A of the free state): not as stable as crystal form A of the free state
